Measured values reported in ChEMBL document CHEMBL3769353, “Novel indole-based melatonin analogues: Evaluation of antioxidant activity and protective effect against amyloid β-induced damage” (Bioorg Med Chem, 2016).
Active and inactive are the calls of the source. No cut-off for these calls is given here.

Columns and labels:
[1] = Antioxidant activity in rat PC12 cells assessed as inhibition of amyloid beta (25 to 35 amino acid residues) induced ROS generation at 50 uM preincubated overnight followed by addition of amyloid beta (25 to 35 amino acid residues) measured after 120 mins by DCFH-DA-based fluorescence assay; format: functional; details: PC-12
[2] = Cytotoxicity against CHOK1 cells assessed as LDH leakage at 10 uM by spectrophotometric analysis; format: cell-based, Cricetulus griseus; details: chinese hamster, cho-k1, 10 µM
PC-12 = test: Neuroprotective activity against amyloid beta (25 to 35 amino acid residues) induced damage in rat PC12 cells assessed as cell viability preincubated for 3 hrs followed by addition of amyloid beta (25 to 35 amino acid residues) for 24 hrs by MTT assay; format: functional, cell-based
Erythrocyte [3] = test: Antioxidant activity in human erythrocytes assessed as ROS induced DCFH-DA oxidation at 10 uM by fluorescence analysis in presence of 10 uM of H2O2; format: functional, cell-based
[4] = Cytotoxicity against rat PC12 cells at 100 uM; format: cell-based; details: pc-12, 100 µM
Erythrocyte [5] = test: Antioxidant activity in human erythrocytes assessed as ROS induced DCFH-DA oxidation at 100 uM by fluorescence analysis in presence of 10 uM of H2O2; format: functional, cell-based

With Fc1ccc(-c2[nH]c3ccccc3c2/C=N/Nc2ccc(Cl)cc2)cc1 the inhibition at 50 µM [1] was 49.7%, the Activity [2] was “Non-toxic” and the IC50 (PC-12) was 73.9 µM. The Activity (Erythrocyte [3]) was “Active”, the Activity [4] was “Non-toxic” and the Activity (Erythrocyte [5]) was “Active”.

In the case of Fc1ccc(-c2[nH]c3ccccc3c2/C=N/Nc2ccccc2Cl)cc1, the inhibition at 50 µM [1] is reported as 44.1%, the Activity [2] is reported as “Non-toxic” and the IC50 (PC-12) is reported as 38.3 µM. For the same compound, the Activity (Erythrocyte [3]) was “Active”, the Activity [4] was “Non-toxic” and the Activity (Erythrocyte [5]) was “Active”.

For Fc1ccc(-c2[nH]c3ccccc3c2/C=N/Nc2cc(F)cc(F)c2)cc1, the inhibition at 50 µM [1] was 86.4%, the Activity [2] was “Non-toxic” and the IC50 (PC-12) was 34.3 µM. The Activity (Erythrocyte [3]) was “Active”, the Activity [4] was “Non-toxic” and the Activity (Erythrocyte [5]) was “Active”.

In the case of Fc1ccc(-c2[nH]c3ccccc3c2/C=N/Nc2ccccc2Br)cc1, the inhibition at 50 µM [1] is reported as 95.5%, the Activity [2] is reported as “Non-toxic” and the IC50 (PC-12) is reported as 37 µM. For the same compound, the Activity (Erythrocyte [3]) was “Active”, the Activity [4] was “Non-toxic” and the Activity (Erythrocyte [5]) was “Active”.

With Fc1ccc(N/N=C/c2c(-c3ccc(F)cc3)[nH]c3ccccc23)cc1 the inhibition at 50 µM [1] was 74%, the Activity [2] was “Non-toxic” and the IC50 (PC-12) was > 100 µM. For the same compound, the Activity (Erythrocyte [3]) was “inactive” and the Activity [4] was “Non-toxic”.

With COc1ccc2[nH]cc(CCNC(C)=O)c2c1 [MELATONIN] the inhibition at 50 µM [1] was 49.9%, the IC50 (PC-12) was > 100 µM and the Activity [4] was “Non-toxic”.

With COc1ccc(C(=O)N/N=C/c2c(-c3ccc(F)cc3)[nH]c3ccccc23)cc1 the inhibition at 50 µM [1] was 19.2%, the Activity [2] was “Non-toxic” and the IC50 (PC-12) was > 100 µM. The Activity (Erythrocyte [3]) was “inactive” and the Activity [4] was “Non-toxic”.

In the case of Fc1ccc(-c2[nH]c3ccccc3c2/C=N/Nc2ccccc2F)cc1, the inhibition at 50 µM [1] is reported as 88.1%, the Activity [2] is reported as “Non-toxic” and the IC50 (PC-12) is reported as 64.1 µM. The Activity (Erythrocyte [3]) was “Active”, the Activity [4] was “Non-toxic” and the Activity (Erythrocyte [5]) was “Active”.

With Fc1ccc(-c2[nH]c3ccccc3c2/C=N/Nc2cccc(Cl)c2)cc1 the inhibition at 50 µM [1] was 54.6%, the Activity [2] was “Non-toxic” and the IC50 (PC-12) was 44 µM. For the same compound, the Activity (Erythrocyte [3]) was “Active”, the Activity [4] was “Non-toxic” and the Activity (Erythrocyte [5]) was “Active”.

For Fc1ccc(-c2[nH]c3ccccc3c2/C=N/Nc2ccc(Cl)c(Cl)c2)cc1, the inhibition at 50 µM [1] was 71.2%, the Activity [2] was “Non-toxic” and the IC50 (PC-12) was 65.7 µM. The Activity (Erythrocyte [3]) was “Active”, the Activity [4] was “Non-toxic” and the Activity (Erythrocyte [5]) was “Active”.

For Fc1ccc(-c2[nH]c3ccccc3c2/C=N/Nc2cccc(F)c2)cc1, the inhibition at 50 µM [1] was 77.8%, the Activity [2] was “Non-toxic” and the IC50 (PC-12) was 54.4 µM. For the same compound, the Activity (Erythrocyte [3]) was “Active”, the Activity [4] was “Non-toxic” and the Activity (Erythrocyte [5]) was “Active”.

For Fc1ccc(-c2[nH]c3ccccc3c2/C=N/Nc2ccc(F)cc2F)cc1, the inhibition at 50 µM [1] was 74.9%, the Activity [2] was “Non-toxic” and the IC50 (PC-12) was 50.4 µM. For the same compound, the Activity (Erythrocyte [3]) was “Active”, the Activity [4] was “Non-toxic” and the Activity (Erythrocyte [5]) was “Active”.

In the case of Fc1ccc(-c2[nH]c3ccccc3c2/C=N/Nc2cccc(Br)c2)cc1, the Activity [2] is reported as “Non-toxic”, the Activity (Erythrocyte [3]) is reported as “Active” and the Activity [4] is reported as “Non-toxic”. For the same compound, the Activity (Erythrocyte [5]) was “Active”.

With Fc1ccc(-c2[nH]c3ccccc3c2/C=N/Nc2ccc(Cl)cc2Cl)cc1 the inhibition at 50 µM [1] was 83.8%, the Activity [2] was “Non-toxic” and the IC50 (PC-12) was 51.5 µM. The Activity (Erythrocyte [3]) was “Active”, the Activity [4] was “Non-toxic” and the Activity (Erythrocyte [5]) was “Active”.

With Fc1ccc(-c2[nH]c3ccccc3c2/C=N/Nc2cc(Cl)ccc2Cl)cc1 the inhibition at 50 µM [1] was 59.2%, the Activity [2] was “Non-toxic” and the IC50 (PC-12) was 39 µM. The Activity (Erythrocyte [3]) was “Active”, the Activity [4] was “Non-toxic” and the Activity (Erythrocyte [5]) was “Active”.
